Measurements as given in patent publication US20250270213A1, “PI3Ka INHIBITORS” (Synnovation Therapeutics, Inc., priority 2022, published 2025).

Tested on: T47D (PIK3CA H1047R) cells
Experiment: pS473 AKT assay with 2.5% FBS, T47D cells
Format: cell-based
Details: Homo sapiens, pSer473 AKT, DMEM with 2.5% FBS, 2 h treatment, read-out: T47D_IC50
Description: Example B. pS473 AKT Assay Protocol with 2.5% FBS
T47D (PIK3CA H1047R) cells were cultured using 10-cm petri dishes with recommended medium plus 10% fetal bovine serum. One day before the assay, cells were seeded in 96-well plates. After overnight incubation, the medium was changed to DMEM with 2.5% fetal bovine serum (FBS) and the cells were treated with different concentrations of the compounds for 2 h. Cells were then fixed using 4% paraformaldehyde at room temperature for 20 min. Aspirate 4% paraformaldehyde, and wash cells using 1× regular phosphate buffered saline 3 times, 5 min each. Aspirate any residual phosphate buffered saline and block cells using 10% goat serum containing 1% bovine serum albumin and 0.3% Triton X-100 at room temperature for 1 h. Without any additional washing, primary antibodies (rabbit anti-pSer473 AKT) were diluted using blocking buffer and added at a final volume of 50 microliter per well. Keep assay plates with primary antibodies overnight at 4° C. Wash cells using 1× regular phosphate buffered saline 3 times, 5 min each. After the final wash, incubate cells with horseradish peroxidase-conjugated secondary antibodies (goat Anti-rabbit IgG) diluted using the same blocking buffer at room temperature for 1 h. Wash cells thoroughly using 1× regular phosphate buffered saline 3 times, 5 min each. Aspirate any residual phosphate buffered saline. Add Super-Signal ELISA Pico Chemiluminescent Substrate at a final volume of 100 microliter per well. Read plates on i3x Multi-Mode Microplate Reader and calculate IC50 values using GraphPad Prism software.

Row | SMILES | IC50 [nM]
1 | CCc1nn2c3c4c(cc(C)cc4c(=O)n(C)c13)C(Nc1ccc(C)nc1-c1ccncc1)C2 (stereo not drawn) [Compound 40, 2-Ethyl-3,6-dimethyl-8-((6-methyl-[2,4′-bipyridin]-3-yl)amino)-8,9-dihydrobenzo[de]pyrazolo[4,5,1-ij][1,7]naphthyridin-4(3H)-one] | < 1000
2 | CCn1ncc2c3c(C(C)Nc4ccc(C)nc4-c4cnn(C)c4)cc(C)cc3c(=O)n(C)c21 (stereo not drawn) [Compound 52, 3-Ethyl-4,7-dimethyl-9-(1-((6-methyl-2-(1-methyl-1H-pyrazol-4-yl)pyridin-3-yl)amino)ethyl)-3,4-dihydro-5H-pyrazolo[3,4-c]isoquinolin-5-one] | < 1000
3 | CCn1ncc2c3c(C(C)Nc4ccc(C)nc4-c4cn[nH]c4)cc(C)cc3c(=O)n(C)c21 (stereo not drawn) [Compound 53, 3-ethyl-4,7-dimethyl-9-(1-((6-methyl-2-(1H-pyrazol-4-yl)pyridin-3-yl)amino)ethyl)-3,4-dihydro-5H-pyrazolo[3,4-c]isoquinolin-5-one] | < 1000
4 | CCn1ncc2c3c(C(C)Nc4ccc(C)nc4-c4ccnn4C)cc(C)cc3c(=O)n(C)c21 (stereo not drawn) [Compound 54, 3-ethyl-4,7-dimethyl-9-(1-((6-methyl-2-(1-methyl-1H-pyrazol-5-yl)pyridin-3-yl)amino)ethyl)-3,4-dihydro-5H-pyrazolo[3,4-c]isoquinolin-5-one] | < 1000
5 | CCn1ncc2c3c(C(C)Nc4ccc(C)nc4-c4ccc(C(=O)NC)c(F)c4)cc(C)cc3c(=O)n(C)c21 (stereo not drawn) [Compound 55, 4-(3-((1-(3-ethyl-4,7-dimethyl-5-oxo-4,5-dihydro-3H-pyrazolo[3,4-c]isoquinolin-9-yl)ethyl)amino)-6-methylpyridin-2-yl)-2-fluoro-N-methylbenzamide] | < 1000
6 | CCn1ncc2c3c(C(C)Nc4ccccc4-c4cnn(CCO)c4)cc(C)cc3c(=O)n(C)c21 (stereo not drawn) [Compound 56, 3-ethyl-9-(1-((2-(1-(2-hydroxyethyl)-1H-pyrazol-4-yl)phenyl)amino)ethyl)-4,7-dimethyl-3,4-dihydro-5H-pyrazolo[3,4-c]isoquinolin-5-one] | < 1000
7 | CCn1ncc2c3c(C(C)Nc4ccccc4N4CCN(C(C)=O)CC4)cc(C)cc3c(=O)n(C)c21 (stereo not drawn) [Compound 57, 9-(1-((2-(4-Acetylpiperazin-1-yl)phenyl)amino)ethyl)-3-ethyl-4,7-dimethyl-3,4-dihydro-5H-pyrazolo[3,4-c]isoquinolin-5-one] | < 1000
8 | CCn1ncc2c3c(C(C)Nc4ccccc4N4CCn5cnnc5C4)cc(C)cc3c(=O)n(C)c21 (stereo not drawn) [Compound 58, 9-(1-((2-(5,6-Dihydro-[1,2,4]triazolo[4,3-a]pyrazin-7(8H)-yl)phenyl)amino)ethyl)-3-ethyl-4,7-dimethyl-3,4-dihydro-5H-pyrazolo[3,4-c]isoquinolin-5-one] | < 1000
9 | CCn1ncc2c3c(C(C)Nc4ccc(Cl)nc4-c4noc(=O)[nH]4)cc(C)cc3c(=O)n(C)c21 (stereo not drawn) [Compound 59, 3-(6-Chloro-3-((1-(3-ethyl-4,7-dimethyl-5-oxo-4,5-dihydro-3H-pyrazolo[3,4-c]isoquinolin-9-yl)ethyl)amino)pyridin-2-yl)-1,2,4-oxadiazol-5(4H)-one] | < 1000
10 | CCn1ncc2c3c(C(C)Nc4ccc(Cl)nc4-c4noc(=O)[nH]4)cc(C)cc3c(=O)n(CC(F)F)c21 (stereo not drawn) [Compound 60, 3-(6-Chloro-3-((1-(4-(2,2-difluoroethyl)-3-ethyl-7-methyl-5-oxo-4,5-dihydro-3H-pyrazolo[3,4-c]isoquinolin-9-yl)ethyl)amino)pyridin-2-yl)-1,2,4-oxadiazol-5(4H)-one] | < 1000

Further lines, results first:

Row | IC50 [nM] | SMILES
11 | < 1000 | CCn1ncc2c3c(C(C)Nc4ccc(Cl)nc4-c4ccc(=O)n(C)c4)cc(C)cc3c(=O)n(C)c21 (stereo not drawn) [Compound 41, 9-(1-((6-chloro-1′-methyl-6′-oxo-1′,6′-dihydro-[2,3′-bipyridin]-3-yl)amino)ethyl)-3-ethyl-4,7-dimethyl-3,4-dihydro-5H-pyrazolo[3,4-c]isoquinolin-5-one]
12 | < 1000 | CCn1ncc2c3c(C(C)Nc4ccc(Cl)nc4-c4ccc(C(=O)NC)c(F)c4)cc(C)cc3c(=O)n(C)c21 (stereo not drawn) [Compound 42, 4-(6-chloro-3-((1-(3-ethyl-4,7-dimethyl-5-oxo-4,5-dihydro-3H-pyrazolo[3,4-c]isoquinolin-9-yl)ethyl)amino)pyridin-2-yl)-2-fluoro-N-methylbenzamide]
13 | < 1000 | CCn1ncc2c3c(C(C)Nc4ccc(Cl)nc4-c4ccncn4)cc(C)cc3c(=O)n(C)c21 (stereo not drawn) [Compound 43, 9-(1-((6-chloro-2-(pyrimidin-4-yl)pyridin-3-yl)amino)ethyl)-3-ethyl-4,7-dimethyl-3,4-dihydro-5H-pyrazolo[3,4-c]isoquinolin-5-one]
14 | < 1000 | CCn1ncc2c3c(C(C)Nc4ccc(Cl)nc4-c4cncnc4)cc(C)cc3c(=O)n(C)c21 (stereo not drawn) [Compound 44, 9-(1-((6-chloro-2-(pyrimidin-5-yl)pyridin-3-yl)amino)ethyl)-3-ethyl-4,7-dimethyl-3,4-dihydro-5H-pyrazolo[3,4-c]isoquinolin-5-one]
15 | < 1000 | CCn1ncc2c3c(C(C)Nc4ccc(Cl)nc4-c4ccncc4F)cc(C)cc3c(=O)n(C)c21 (stereo not drawn) [Compound 45, 9-(1-((6-chloro-3′-fluoro-[2,4′-bipyridin]-3-yl)amino)ethyl)-3-ethyl-4,7-dimethyl-3,4-dihydro-5H-pyrazolo[3,4-c]isoquinolin-5-one]
16 | < 1000 | CCn1ncc2c3c(C(C)Nc4ccc(Cl)nc4-c4ccc(C(=O)N(C)C)cc4)cc(C)cc3c(=O)n(C)c21 (stereo not drawn) [Compound 46, 4-(6-chloro-3-((1-(3-ethyl-4,7-dimethyl-5-oxo-4,5-dihydro-3H-pyrazolo[3,4-c]isoquinolin-9-yl)ethyl)amino)pyridin-2-yl)-N,N-dimethylbenzamide]
17 | < 1000 | CCn1ncc2c3c(C(C)Nc4ccc(Cl)nc4-c4ccc(C(=O)O)cc4)cc(C)cc3c(=O)n(C)c21 (stereo not drawn) [Compound 47, 4-(6-chloro-3-((1-(3-ethyl-4,7-dimethyl-5-oxo-4,5-dihydro-3H-pyrazolo[3,4-c]isoquinolin-9-yl)ethyl)amino)pyridin-2-yl) benzoic acid]
18 | < 1000 | CCn1ncc2c3c(C(C)Nc4ccc(Cl)nc4-c4ccnn4C)cc(C)cc3c(=O)n(C)c21 (stereo not drawn) [Compound 48, 9-(1-((6-chloro-2-(1-methyl-1H-pyrazol-5-yl)pyridin-3-yl)amino)ethyl)-3-ethyl-4,7-dimethyl-3,4-dihydro-5H-pyrazolo[3,4-c]isoquinolin-5-one]
19 | < 1000 | CCn1ncc2c3c(C(C)Nc4ccc(Cl)nc4-c4cnn(C)c4C)cc(C)cc3c(=O)n(C)c21 (stereo not drawn) [Compound 49, 9-(1-((6-chloro-2-(1,5-dimethyl-1H-pyrazol-4-yl)pyridin-3-yl)amino)ethyl)-3-ethyl-4,7-dimethyl-3,4-dihydro-5H-pyrazolo[3,4-c]isoquinolin-5-one]
20 | < 1000 | CCn1ncc2c3c(C(C)Nc4ccc(Cl)nc4-c4cnn(C)c4)cc(C)cc3c(=O)n(C)c21 (stereo not drawn) [Compound 50, 9-(1-((6-chloro-2-(1-methyl-1H-pyrazol-4-yl)pyridin-3-yl)amino)ethyl)-3-ethyl-4,7-dimethyl-3,4-dihydro-5H-pyrazolo[3,4-c]isoquinolin-5-one]
21 | < 1000 | CCn1ncc2c3c(C(C)Nc4ccc(Cl)nc4-c4cn[nH]c4)cc(C)cc3c(=O)n(C)c21 (stereo not drawn) [Compound 51, 9-(1-((6-chloro-2-(1H-pyrazol-4-yl)pyridin-3-yl)amino)ethyl)-3-ethyl-4,7-dimethyl-3,4-dihydro-5H-pyrazolo[3,4-c]isoquinolin-5-one]
